# Data published in patent EP1002543A1, “Pharmaceutical compositions for the therapy of glioma or prostate cell proliferative disorders containing cyclic rgd compounds” (JCR PHARMACEUTICALS CO., LTD., priority 1998, dated 2000).
# How the values were obtained:
# U-87MG cells [1] = experiment: Effect of caspase-3 and caspase-9 inhibitors on cell death induced by cRGDfV (viable cell count, percent survival); format: cell-based, Human; settings: U-87MG pretreated with DEVD-FMK (10 µM) or LEHD-FMK (10 µM) for 90 minutes; cRGDfV 20 µg/ml, 18 hours
# Source text: To determine whether the observed killing of glioma cells was due to apoptosis, we used inhibitors of caspase-3 (DEVD-FMK) and caspase-9 (LEHD-FMK), two of the cysteine aspartyl proteases, known to be involved in apoptosis (see Salvesen GS, Dixit VM (1997) Cell 91:443-446; Cohen GM (1997) Biochem J326:1-16; Janicke RU, Sprengart ML, Wati MR, Porter AG (1998) J Biol Chem 273:9357-9360; Cardone MH, Roy N, Stennicke, HR, Salvesen GS, Franke TF, Stanbridge E, Frisch S, Reed JC (1998) Science 282:1318-1321; Sakahira H, Enari M, Nagata S (1998) Nature 391:96-99). Caspase-3 is required for morphological changes and cleavage of poly(ADP-ribose) polymerase (PARP), a cellular enzyme implicated in DNA repair mechanism. Caspase-9 is involved in cytochrome c-induced apoptosis by activating procaspase-3 which finally leads to apoptosis. Briefly, U-87MG and U-251MG cells were harvested from monolayer culture and were treated with DEVD-FMK (10 µM) or LEHD-FMK (10 µM) for 90 minutes at 37°C. One set of cells without any inhibitor served as control. Cells were then washed and incubated in the presence or absence of cRGDfV (20 µg/ml) at 37°C, 5% CO2 for 18 hours. The number of viable cells, both in control and treated groups were counted and percent survival was determined.
# U-251MG cells = experiment: Effect of cRGD and RGD peptides on growth of human glioma cells (viable cell count by trypan blue dye exclusion; morphology under microscope); format: cell-based; settings: 18 hours; for % inhibition: viable cells vs untreated control
# Description: (§1) Human glioblastoma, U-87MG, and U-373MG cells were obtained from the American Type Culture Collection, Rockville, MD and grown in Dulbecco's modified Eagle's medium supplemented with 10% fetal calf serum (Hyclone Laboratories Inc. Logan, UT), sodium pyruvate (55 mg/L), sodium bicarbonate (1.2 g/L), HEPES (1.2 g/L) and gentamicin (50 µg/ml). U-251MG cells were provided by Dr. G.Y. Gillespie, University of Alabama at Birmingham, Alabama, and were grown in the above media.
# (§2) Semi-confluent monolayers of U-87MG, U-251MG and U-373MG cells were treated with different concentrations of cRGD for 18 hours at 37° C incubator with 5% CO2. One set of cells served as untreated control. The cells were monitored under microscope for morphological changes. Most of the cRGD (10 µg/ml)-treated U-87MG (Figure 2; C=control) and U-373MG cells were rounded up. […] The number of viable cells (both treated and untreated) were then counted by trypan blue dye exclusion method using a hemacytometer (Hausser Scientific, Horsham, PA) and percent inhibition was calculated (Table 1).
# U-87MG cells [2] = experiment: as above; format: cell-based; settings: 18 hours; for % inhibition: viable cells vs untreated control
# Description: as §1, §2
# U-373MG cells = experiment: as above; format: cell-based; settings: 18 hours; for % inhibition: viable cells vs untreated control
# Description: as §1, §2
# U-87MG cells [3] = experiment: U-87MG-induced spheroid formation in liquid culture; format: cell-based, Human; settings: treated again after 48 hours, further 72 hours
# Description: U-87MG cells can be grown either as a monolayer or as multicellular three-dimensional spheroids (500-1,000 µm) in liquid culture. Since spheroids closely resemble the architecture of a tumor in vivo, the cultures were contacted with cRGD or RGD to determine if treatment had any effect on spheroid formation. U-87MG cells (5 ×10^5-1×10^6) were mixed with either cRGD (100µg) or RGD (100µg) peptide or PBS (as untreated control) and incubated at 4° C for 30 minutes. Treated and untreated cells were then seeded onto 24-well plate and incubated further at 37° C. Forty eight hours later; the treated cells were treated again with respective peptides and incubated for 72 hours.
# In a second study, U-87MG cells were allowed to grow (in a 24-well plate) for 24 hours before the addition of cyclic (50 µg) or linear (50 µg) peptide. One set of cells, with PBS alone, served as untreated control. Forty eight hours later, the cells were treated again with respective cRGD (50 µg) or RGD (50 µg) peptides and incubated for an additional 72 hours.
Molecule,number of viable cells after cRGDfV treatment (U-87MG cells [1]),morphological changes (U-251MG cells; 10 µg/ml),% inhibition (U-251MG cells; 10 ug/ml) [%],% inhibition (U-251MG cells; 20 ug/ml) [%],morphological changes (U-87MG cells [2]; 10 µg/ml),% inhibition (U-87MG cells [2]; 10 ug/ml) [%],% inhibition (U-87MG cells [2]; 20 ug/ml) [%],morphological changes (U-373MG cells; 10 µg/ml),% inhibition (U-373MG cells; 10 ug/ml) [%],% inhibition (U-373MG cells; 20 ug/ml) [%],"reduction of the size of the spheroids (U-87MG cells [3]; first study: 100µg peptide mixed with cells, vs untreated control)","effect on spheroid formation (U-87MG cells [3]; second study: cells grown 24 hours, 50 µg peptide)",effect on spheroid formation (U-87MG cells [3]; first study: 100µg peptide mixed with cells)
cyclo(Arg-Gly-Asp-D-Phe-Val) [cRGD],inability of cRGDfV to reduce the number of viable U-87MG cell,no significant morphological changes,0,5.9,rounded up,52.9,70.6,rounded up,46.7,80.0,at least 70%,significant inhibitory effect on the spheroid formation,–
"N=C(N)NCCC[C@H](N)C(=O)NCC(=O)N[C@@H](CC(=O)O)C(=O)O [RGD, H-Arg-Gly-Asp-OH, reference compound]",–,–,0,13,–,0,3.5,–,6.7,0,–,–,did not appear to effect spheroid formation
